The record followed here is US9513294B2, “Megastokes amino-triazolyl-BODIPY compounds and applications to live neuron staining and human serum albumin FA1 drug site probing” (National University of Singapore, priority 2012, dated 2016).

The nature of series [1]: Absorbance and fluorescence emission spectra (SpectraMax M2). It is filed as physicochemical. To be noted: MKCA compound library; for λmax Absorp. (nm): absorbance maximum; for λmax Emission (nm): fluorescence emission maximum. The method, boiled down:
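Absorbance and emission maxima measured on a SpectraMax M2 spectrophotometer, which also gave quantum yield data; analysis in GraphPrism.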

Series [2] is described as follows: Quantum yield measurements versus Acridine Yellow in EtOH. It is filed as physicochemical. To be noted: MKCA compound library; quantum yield. The method, boiled down: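 Fluorescence quantum yield is relative to Acridine Yellow in EtOH (Φ 0.47), with excitation at 460 nm. Integrated emission at 510–700 nm was corrected for absorbance at the excitation wavelength and for solvent refractive index.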

Turning to `CCCCCC(O)c1cn(-c2ccc3n2[B-](F)(F)[N+]2=C(N4CCc5ccccc5C4)C=CC2=C3c2ccc(NC(=O)CCl)cc2)nn1` (stereo not drawn) [MKCA66-69], in series [1], the “λmax Absorp. (nm)” value is on record as 469 nm and the “λmax Emission (nm)” value came out at 586 nm. Moreover, in series [2], the “φ (%)” value was 3.38%.
For `O=C(CCl)Nc1ccc(C2=C3C=CC(N4CCc5ccccc5C4)=[N+]3[B-](F)(F)n3c2ccc3-n2cc(CO)nn2)cc1` [MKCA66-70], in series [1], the “λmax Absorp. (nm)” value amounted to 468 nm and the “λmax Emission (nm)” value is listed as 581 nm. Further, the “φ (%)” value in series [2] was 2.61%.
As for `Cc1ccccc1CNC1=[N+]2C(=C(c3ccc(NC(=O)CCl)cc3)c3ccc(-n4cc(C5CC5)nn4)n3[B-]2(F)F)C=C1` [MKCA101-4], in series [1], the “λmax Absorp. (nm)” value came to 464 nm and the “λmax Emission (nm)” value is 565 nm. Besides, the “φ (%)” value in series [2] is 34.56%.
For the compound `Cc1ccccc1CNC1=[N+]2C(=C(c3ccc(NC(=O)CCl)cc3)c3ccc(-n4cc(C5CCCC5)nn4)n3[B-]2(F)F)C=C1` [MKCA101-5], in series [1], the “λmax Absorp. (nm)” value is listed as 466 nm and the “λmax Emission (nm)” value came to 563 nm. Besides, the “φ (%)” value in series [2] worked out at 31.53%.
For `Cc1ccccc1CNC1=[N+]2C(=C(c3ccc(NC(=O)CCl)cc3)c3ccc(-n4cc(CC5CCCCC5)nn4)n3[B-]2(F)F)C=C1` [MKCA101-8], in series [1], the “λmax Absorp. (nm)” value is on record as 464 nm and the “λmax Emission (nm)” value is 562 nm. Also, the “φ (%)” value in series [2] was determined as 30.95%.
For `Cc1ccccc1CNC1=[N+]2C(=C(c3ccc(NC(=O)CCl)cc3)c3ccc(-n4cc(CN(C)Cc5ccccc5)nn4)n3[B-]2(F)F)C=C1` [MKCA101-18], in series [1], the “λmax Absorp. (nm)” value was found to be 462 nm and the “λmax Emission (nm)” value was found to be 562 nm. In series [2], the “φ (%)” value is listed as 21.53%.
Taken in the same sequence, the figures for `Cc1ccccc1CNC1=[N+]2C(=C(c3ccc(NC(=O)CCl)cc3)c3ccc(-n4cc(CCc5ccccc5)nn4)n3[B-]2(F)F)C=C1` [MKCA101-19] were 463 nm, 562 nm and 33.37%.
With `Cc1ccccc1CNC1=[N+]2C(=C(c3ccc(NC(=O)CCl)cc3)c3ccc(-n4cc(CC(C)C)nn4)n3[B-]2(F)F)C=C1` [MKCA101-43], in series [1], the “λmax Absorp. (nm)” value worked out at 466 nm and the “λmax Emission (nm)” value is 562 nm. For the same compound, the “φ (%)” value in series [2] came out at 29.92%.
Taken in the same sequence, the figures for `CCCc1cn(-c2ccc3n2[B-](F)(F)[N+]2=C(NCc4ccccc4C)C=CC2=C3c2ccc(NC(=O)CCl)cc2)nn1` [MKCA101-48] were 465 nm, 562 nm and 28.94%.
Taken in the same sequence, the figures for `CCCCCC(O)c1cn(-c2ccc3n2[B-](F)(F)[N+]2=C(NCc4ccccc4C)C=CC2=C3c2ccc(NC(=O)CCl)cc2)nn1` (stereo not drawn) [MKCA101-69] were 466 nm, 562 nm and 21.93%.
For `Cc1ccccc1CNC1=[N+]2C(=C(c3ccc(NC(=O)CCl)cc3)c3ccc(-n4cc(CO)nn4)n3[B-]2(F)F)C=C1` [MKCA101-70], in series [1], the “λmax Absorp. (nm)” value came to 465 nm and the “λmax Emission (nm)” value is 560 nm. The “φ (%)” value in series [2] was determined as 21.76%.
Taken in the same sequence, the figures for `CCCC(C)c1cn(-c2ccc3n2[B-](F)(F)[N+]2=C(NCc4ccccc4OCC)C=CC2=C3c2ccc(NC(=O)CCl)cc2)nn1` (stereo not drawn) [MKCA103-3] were 466 nm, 562 nm and 23.61%.
As to `CCOc1ccccc1CNC1=[N+]2C(=C(c3ccc(NC(=O)CCl)cc3)c3ccc(-n4cc(C5CC5)nn4)n3[B-]2(F)F)C=C1` [MKCA103-4], in series [1], the “λmax Absorp. (nm)” value was found to be 464 nm and the “λmax Emission (nm)” value is recorded as 564 nm. The “φ (%)” value in series [2] was 36.22%.
Taken in the same sequence, the figures for `CCOc1ccccc1CNC1=[N+]2C(=C(c3ccc(NC(=O)CCl)cc3)c3ccc(-n4cc(C5CCCC5)nn4)n3[B-]2(F)F)C=C1` [MKCA103-5] were 464 nm, 563 nm and 33.46%.
In the same order, the values of `CCOc1ccccc1CNC1=[N+]2C(=C(c3ccc(NC(=O)CCl)cc3)c3ccc(-n4cc(CC5CCCCC5)nn4)n3[B-]2(F)F)C=C1` [MKCA103-8] are 464 nm, 563 nm and 37.77%.
Taken in the same sequence, the figures for `CCOc1ccccc1CNC1=[N+]2C(=C(c3ccc(NC(=O)CCl)cc3)c3ccc(-n4cc(CN(C)Cc5ccccc5)nn4)n3[B-]2(F)F)C=C1` [MKCA103-18] were 462 nm, 561 nm and 24.66%.
Turning to `CCOc1ccccc1CNC1=[N+]2C(=C(c3ccc(NC(=O)CCl)cc3)c3ccc(-n4cc(CCc5ccccc5)nn4)n3[B-]2(F)F)C=C1` [MKCA103-19], in series [1], the “λmax Absorp. (nm)” value amounted to 464 nm and the “λmax Emission (nm)” value amounted to 563 nm. Besides, the “φ (%)” value in series [2] came out at 36.82%.
Take `CCOc1ccccc1CNC1=[N+]2C(=C(c3ccc(NC(=O)CCl)cc3)c3ccc(-n4cc(CC(C)C)nn4)n3[B-]2(F)F)C=C1` [MKCA103-43]: in series [1], the “λmax Absorp. (nm)” value is recorded as 465 nm and the “λmax Emission (nm)” value came to 563 nm. In addition, the “φ (%)” value in series [2] amounted to 33.76%.
Regarding `CCCc1cn(-c2ccc3n2[B-](F)(F)[N+]2=C(NCc4ccccc4OCC)C=CC2=C3c2ccc(NC(=O)CCl)cc2)nn1` [MKCA103-48], in series [1], the “λmax Absorp. (nm)” value is given as 465 nm and the “λmax Emission (nm)” value is 562 nm. In addition, the “φ (%)” value in series [2] is listed as 38.23%.
Taken in the same sequence, the figures for `CCCCCC(O)c1cn(-c2ccc3n2[B-](F)(F)[N+]2=C(NCc4ccccc4OCC)C=CC2=C3c2ccc(NC(=O)CCl)cc2)nn1` (stereo not drawn) [MKCA103-69] were 465 nm, 562 nm and 33.49%.
On to `CCOc1ccccc1CNC1=[N+]2C(=C(c3ccc(NC(=O)CCl)cc3)c3ccc(-n4cc(CO)nn4)n3[B-]2(F)F)C=C1` [MKCA103-70], for which, in series [1], the “λmax Absorp. (nm)” value is on record as 463 nm and the “λmax Emission (nm)” value came to 563 nm. Besides, in series [2], the “φ (%)” value is 20.22%.
For the compound `COc1ccc(OC)c(CNC2=[N+]3C(=C(c4ccc(NC(=O)CCl)cc4)c4ccc(-n5cc(C6CC6)nn5)n4[B-]3(F)F)C=C2)c1` [MKCA181-4], in series [1], the “λmax Absorp. (nm)” value stood at 464 nm and the “λmax Emission (nm)” value was determined as 566 nm. In series [2], the “φ (%)” value is reported as 19.35%.
In the same order, the values of `COc1ccc(OC)c(CNC2=[N+]3C(=C(c4ccc(NC(=O)CCl)cc4)c4ccc(-n5cc(C6CCCC6)nn5)n4[B-]3(F)F)C=C2)c1` [MKCA181-5] are 465 nm, 560 nm and 25.80%.
`COc1ccc(OC)c(CNC2=[N+]3C(=C(c4ccc(NC(=O)CCl)cc4)c4ccc(-n5cc(CC6CCCCC6)nn5)n4[B-]3(F)F)C=C2)c1` [MKCA181-8]: in series [1], the “λmax Absorp. (nm)” value is 465 nm and the “λmax Emission (nm)” value was 562 nm. In series [2], the “φ (%)” value is listed as 20.56%.
In the same order, the values of `COc1ccc(OC)c(CNC2=[N+]3C(=C(c4ccc(NC(=O)CCl)cc4)c4ccc(-n5cc(CN(C)Cc6ccccc6)nn5)n4[B-]3(F)F)C=C2)c1` [MKCA181-18] are 462 nm, 563 nm and 21.65%.
In the same order, the values of `COc1ccc(OC)c(CNC2=[N+]3C(=C(c4ccc(NC(=O)CCl)cc4)c4ccc(-n5cc(CC(C)C)nn5)n4[B-]3(F)F)C=C2)c1` [MKCA181-43] are 465 nm, 564 nm and 21.21%.
Taken in the same sequence, the figures for `CCCc1cn(-c2ccc3n2[B-](F)(F)[N+]2=C(NCc4cc(OC)ccc4OC)C=CC2=C3c2ccc(NC(=O)CCl)cc2)nn1` [MKCA181-48] were 465 nm, 563 nm and 20.00%.
`CCCCCC(O)c1cn(-c2ccc3n2[B-](F)(F)[N+]2=C(NCc4cc(OC)ccc4OC)C=CC2=C3c2ccc(NC(=O)CCl)cc2)nn1` (stereo not drawn) [MKCA181-69]: in series [1], the “λmax Absorp. (nm)” value was 465 nm and the “λmax Emission (nm)” value was 558 nm. For the same compound, the “φ (%)” value in series [2] was found to be 14.25%.
Taken in the same sequence, the figures for `COc1ccc(OC)c(CNC2=[N+]3C(=C(c4ccc(NC(=O)CCl)cc4)c4ccc(-n5cc(CO)nn5)n4[B-]3(F)F)C=C2)c1` [MKCA181-70] were 464 nm, 562 nm and 19.42%.
Turning to `CCCC(C)c1cn(-c2ccc3n2[B-](F)(F)[N+]2=C(N(C)Cc4ccccc4)C=CC2=C3c2ccc(NC(=O)CCl)cc2)nn1` (stereo not drawn) [MKCA195-3], in series [1], the “λmax Absorp. (nm)” value amounted to 466 nm and the “λmax Emission (nm)” value is on record as 577 nm. Also, the “φ (%)” value in series [2] is 7.95%.
In the same order, the values of `CN(Cc1ccccc1)C1=[N+]2C(=C(c3ccc(NC(=O)CCl)cc3)c3ccc(-n4cc(C5CC5)nn4)n3[B-]2(F)F)C=C1` [MKCA195-4] are 466 nm, 575 nm and 7.26%.
On to `CN(Cc1ccccc1)C1=[N+]2C(=C(c3ccc(NC(=O)CCl)cc3)c3ccc(-n4cc(C5CCCC5)nn4)n3[B-]2(F)F)C=C1` [MKCA195-5], for which, in series [1], the “λmax Absorp. (nm)” value turned out to be 467 nm and the “λmax Emission (nm)” value stood at 580 nm. The “φ (%)” value in series [2] is reported as 4.93%.
Taken in the same sequence, the figures for `CN(Cc1ccccc1)C1=[N+]2C(=C(c3ccc(NC(=O)CCl)cc3)c3ccc(-n4cc(CC5CCCCC5)nn4)n3[B-]2(F)F)C=C1` [MKCA195-8] were 465 nm, 581 nm and 6.17%.
As to `CN(Cc1ccccc1)Cc1cn(-c2ccc3n2[B-](F)(F)[N+]2=C(N(C)Cc4ccccc4)C=CC2=C3c2ccc(NC(=O)CCl)cc2)nn1` [MKCA195-18], in series [1], the “λmax Absorp. (nm)” value is reported as 462 nm and the “λmax Emission (nm)” value is 580 nm. The “φ (%)” value in series [2] stood at 3.03%.
